Experiments:
Type in all cases: functional
NCI-H460 [1] = experiment: Cytotoxicity against human NCI-H460 cells assessed as growth inhibition at 0.1 ug/ml after 24 hrs by MTT assay; details: NCI-H460, 24 h, read-out: GI
[2] = Cytotoxicity against human HO8910 cells assessed as growth inhibition at 1 ug/ml after 24 hrs by MTT assay; details: HO-8910, 24 h, read-out: GI
[3] = Cytotoxicity against human HO8910 cells assessed as growth inhibition at 0.1 ug/ml after 24 hrs by MTT assay; details: HO-8910, 24 h, read-out: GI
KB [4] = experiment: Cytotoxicity against human KB cells assessed as growth inhibition at 100 ug/ml after 24 hrs by MTT assay; details: read-out: GI
KB [5] = experiment: Cytotoxicity against human KB cells assessed as growth inhibition at 10 ug/ml after 24 hrs by MTT assay; details: read-out: GI
KB [6] = experiment: Cytotoxicity against human KB cells assessed as growth inhibition at 1 ug/ml after 24 hrs by MTT assay; details: read-out: GI
KB [7] = experiment: Cytotoxicity against human KB cells assessed as growth inhibition at 0.1 ug/ml after 24 hrs by MTT assay; details: read-out: GI
Bel-7402 [8] = experiment: Cytotoxicity against human Bel7402 cells assessed as growth inhibition at 10 ug/ml after 24 hrs by MTT assay; details: Bel-7402, 24 h, read-out: GI
Bel-7402 [9] = experiment: Cytotoxicity against human Bel7402 cells assessed as growth inhibition at 1 ug/ml after 24 hrs by MTT assay; details: Bel-7402, 24 h, read-out: GI
Bel-7402 [10] = experiment: Cytotoxicity against human Bel7402 cells assessed as growth inhibition at 0.1 ug/ml after 24 hrs by MTT assay; details: Bel-7402, 24 h, read-out: GI
NCI-H460 [11] = experiment: Cytotoxicity against human NCI-H460 cells assessed as growth inhibition at 10 ug/ml after 24 hrs by MTT assay; details: NCI-H460, 24 h, read-out: GI
NCI-H460 [12] = experiment: Cytotoxicity against human NCI-H460 cells assessed as growth inhibition at 1 ug/ml after 24 hrs by MTT assay; details: NCI-H460, 24 h, read-out: GI
Bel-7402 [13] = experiment: Cytotoxicity against human Bel7402 cells assessed as growth inhibition at 100 ug/ml after 24 hrs by MTT assay; details: Bel-7402, 24 h, read-out: GI
[14] = Cytotoxicity against human HO8910 cells assessed as growth inhibition at 100 ug/ml after 24 hrs by MTT assay; details: HO-8910, 24 h, read-out: GI
[15] = Cytotoxicity against human HO8910 cells assessed as growth inhibition at 10 ug/ml after 24 hrs by MTT assay; details: HO-8910, 24 h, read-out: GI
NCI-H460 [16] = experiment: Cytotoxicity against human NCI-H460 cells assessed as growth inhibition at 100 ug/ml after 24 hrs by MTT assay; details: NCI-H460, 24 h, read-out: GI

Row | Compound | inhibition of growth at 0.1 µg/mL (NCI-H460 [1]) [%] | inhibition of growth at 1 µg/mL [2] [%] | inhibition of growth at 0.1 µg/mL [3] [%] | inhibition of growth at 100 µg/mL (KB [4]) [%] | inhibition of growth at 10 µg/mL (KB [5]) [%] | inhibition of growth at 1 µg/mL (KB [6]) [%] | inhibition of growth at 0.1 µg/mL (KB [7]) [%] | inhibition of growth at 10 µg/mL (Bel-7402 [8]) [%] | inhibition of growth at 1 µg/mL (Bel-7402 [9]) [%] | inhibition of growth at 0.1 µg/mL (Bel-7402 [10]) [%] | inhibition of growth at 10 µg/mL (NCI-H460 [11]) [%] | inhibition of growth at 1 µg/mL (NCI-H460 [12]) [%] | inhibition of growth at 100 µg/mL (Bel-7402 [13]) [%] | inhibition of growth at 100 µg/mL [14] [%] | inhibition of growth at 10 µg/mL [15] [%] | inhibition of growth at 100 µg/mL (NCI-H460 [16]) [%]
1 | O=C(CCCCC(CCSC(=O)c1ccccc1)SC(=O)c1ccccc1)Nc1ccc(Cl)cc1 (centres undefined) | 9.36 | 1.29 | 3.68 | 5.78 | 10.6 | 11.7 | 16.9 | 4.87 | 9.62 | 9.2 | 12.6 | 9.8 |  |  |  | 
2 | O=C(CCCCC1CCSS1)NO (centres undefined) | 3.9 |  |  | 12.4 | 0.89 | 2.57 | 7.92 | 11.8 | 7.39 | 10.4 |  | 0.64 | 12.5 |  |  | 
3 | O=C(CCCCC(S)CCS)Nc1ccc(Br)cn1 (centres undefined) | 6.4 | 2.51 |  | 59.2 | 34.1 | 2.51 |  | 23.2 | 4.71 |  | 39.2 | 10.7 | 41.1 | 56.8 | 29.4 | 55.9
4 | O=C(CCCCC1CCSS1)Nc1ccccn1 (centres undefined) | 2.61 |  | 1.14 | 25.1 |  |  |  | 5.77 |  | 0.89 |  | 0.81 | 37.6 | 51.9 |  | 39.3
5 | O=C(CCCCC1CCSS1)Nc1ccc(Br)cn1 (centres undefined) | 9 | 4.27 |  | 42.3 | 35.1 | 4.33 |  | 24.5 | 13.1 |  | 38 | 13.1 | 45.5 | 32.1 | 29.6 | 52
6 | CC(=O)SCCC(CCCCC(=O)Nc1ccccc1Cl)SC(C)=O (centres undefined) | 16.6 |  | 2.48 | 6.93 | 6.55 | 8.21 | 7.05 | 3.09 | 5.01 | 6.61 | 11.4 | 13.2 |  |  |  | 15.2
7 | O=C(CCCCC(S)CCS)Nc1cccc2ccccc12 (centres undefined) |  |  | 0.76 |  |  |  |  |  | 0.69 |  |  |  |  |  |  | 2.18
8 | O=C(CCCCC(CCSC(=O)c1ccccc1)SC(=O)c1ccccc1)Nc1ccccc1 (centres undefined) | 0.6 | 3.79 | 3.12 |  | 2.67 |  | 1.52 |  |  |  | 11.4 | 5.93 |  |  |  | 
9 | O=C(CCCCC(S)CCS)Nc1ccccn1 (centres undefined) | 5.01 |  |  | 18.5 | 0.28 |  |  |  |  |  |  | 2.31 | 3.62 | 14.2 |  | 11.7
10 | O=C(CCCCC(S)CCS)Nc1cccc(Cl)c1 (centres undefined) | 9.78 |  |  | 8.04 |  |  |  | 3.22 | 1.14 | 3.09 |  | 7.2 | 16.1 |  |  | 24.8
11 | O=C(CCCCC(S)CCS)Nc1ccccc1Cl (centres undefined) | 6.36 | 7.72 | 6.11 |  |  |  |  |  | 3.08 | 5.11 | 18.2 | 8.19 |  |  |  | 12.1
12 | O=C(CCCCC1CCSS1)Nc1cccc2ccccc12 (centres undefined) | 2.36 | 6.95 | 0.34 |  |  | 8.37 |  | 6.27 | 9.55 | 3.4 |  | 4.15 | 7.22 |  |  | 
13 | Cc1cccc(NC(=O)CCCCC(S)CCS)c1 (centres undefined) | 9.34 | 2.76 | 4.92 | 17.5 | 7.23 | 3.31 | 5.75 | 14.1 | 11.1 | 10.1 | 7.67 | 9.43 | 7.08 |  |  | 23.1
14 | O=C(CCCCC(CCSC(=O)c1ccccc1)SC(=O)c1ccccc1)Nc1cccc(Cl)c1 (centres undefined) | 15.6 | 3.38 | 9.02 |  | 16.6 | 12.7 | 10.7 |  |  | 1.7 | 9.12 | 9.48 |  |  |  | 
15 | CC(=O)SCCC(CCCCC(=O)Nc1cccc(Cl)c1)SC(C)=O (centres undefined) |  |  | 0.27 | 48.8 |  | 0.04 | 5.72 |  | 0.56 | 3.72 | 2.09 | 0.31 | 20.8 | 38.1 |  | 42.8
16 | O=C(CCCCC(S)CCS)Nc1ccc(Cl)cc1 (centres undefined) |  | 2.81 | 1.04 | 44.1 | 18.2 | 13.3 | 9.11 | 1.16 | 0.27 | 1.06 | 21.9 | 6.76 | 25.5 | 21.3 |  | 40.9

Source: ChEMBL document CHEMBL1157124, “Synthesis and anticancer evaluation of alpha-lipoic acid derivatives” (Bioorg Med Chem Lett, 2010)
